pIC50: −log10 of the molar value. Where a name gives a salt, the structure may show the parent alone.
What was measured:
[1] = target: T1, human muscarinic acetylcholine M3 receptor (Homo sapiens, UniProt P20309); test: Muscarinic 3 receptor binding assay ([3H]NMS competition, SPA), pIC50; conditions: [3H]NMS 0.1 nM, CHO-K1 cell membranes expressing human M3 receptor
T1 construct: expressed in transfected cells; host or cells: CHO-K1 (Chinese Hamster Ovary) cell membranes
Outline: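 Competition of [3H]NMS (0.1 nM, quarter Kd) binding to CHO-K1 membranes expressing human M3, SPA format, in 20 mM HEPES pH 7.4, 5 mM MgCl2, 0.1% BSA, 1% DMSO. Incubated 16 h at room temperature; non-specific binding with 1 μM atropine; pIC50 from specific binding.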

[2] = target: T2, Adrenergic β2 (Homo sapiens, UniProt P07550); test: Adrenergic β2 mediated cAMP production in H292 cells (AlphaScreen), concentration response; type: cell-based; conditions: for EC50: 60 min, 300 μM rolipram, read-out: β2 pEC50 (converted); for β2 Intrinsic Activity: fraction relative to the maximum activity determined for formoterol
T2 construct: Adherent H292 cells are removed from tissue culture flasks by treatment with Accutase™ cell detachment solution; endogenous in cells; host or cells: H292 cells
Outline: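 H292 cells seeded overnight, pretreated 10 min with rolipram (300 μM final), then exposed to compounds 60 min at room temperature in HBSS/10 mM HEPES pH 7.4/5 mM glucose, 1% DMSO. Lysate cAMP quantified by AlphaScreen against a standard curve; four-parameter fit gives pEC50 and intrinsic activity relative to formoterol maximum.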

T2 sequence (P07550 whole entry): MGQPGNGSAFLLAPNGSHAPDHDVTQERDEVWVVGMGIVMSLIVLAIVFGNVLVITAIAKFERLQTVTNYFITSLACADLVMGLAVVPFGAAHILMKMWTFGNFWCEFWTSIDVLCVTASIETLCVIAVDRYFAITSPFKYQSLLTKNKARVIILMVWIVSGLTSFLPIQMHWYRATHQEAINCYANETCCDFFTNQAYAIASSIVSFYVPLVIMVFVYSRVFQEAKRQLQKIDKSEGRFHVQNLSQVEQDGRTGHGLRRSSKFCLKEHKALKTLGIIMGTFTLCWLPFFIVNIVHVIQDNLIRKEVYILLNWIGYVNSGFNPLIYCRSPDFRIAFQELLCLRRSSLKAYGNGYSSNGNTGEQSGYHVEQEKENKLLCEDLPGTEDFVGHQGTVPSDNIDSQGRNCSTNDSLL
T1 sequence (P20309 whole entry): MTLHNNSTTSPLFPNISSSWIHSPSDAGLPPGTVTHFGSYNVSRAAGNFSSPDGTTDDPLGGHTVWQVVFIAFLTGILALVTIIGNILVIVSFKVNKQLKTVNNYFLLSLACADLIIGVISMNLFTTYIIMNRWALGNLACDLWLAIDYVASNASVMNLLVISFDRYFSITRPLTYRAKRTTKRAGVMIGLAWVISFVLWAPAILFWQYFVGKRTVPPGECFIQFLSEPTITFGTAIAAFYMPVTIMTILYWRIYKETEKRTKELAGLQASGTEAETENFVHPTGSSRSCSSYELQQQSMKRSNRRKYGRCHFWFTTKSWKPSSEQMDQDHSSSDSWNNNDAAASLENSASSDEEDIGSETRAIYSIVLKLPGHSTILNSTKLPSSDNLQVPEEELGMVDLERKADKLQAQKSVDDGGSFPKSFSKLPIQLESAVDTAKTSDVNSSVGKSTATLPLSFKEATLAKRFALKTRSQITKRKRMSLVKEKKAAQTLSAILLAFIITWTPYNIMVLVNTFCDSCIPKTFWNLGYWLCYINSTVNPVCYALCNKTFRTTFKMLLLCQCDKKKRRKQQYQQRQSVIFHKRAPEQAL

Structure (SMILES) | pIC50 [1] | EC50 [2] [nM] | β2 Intrinsic Activity [2]
CCN(CCNCCc1ccc(O)c2[nH]c(=O)sc12)C(=O)CCOCCCc1cccc(CN2CCC3(CC2)CN(C(=O)c2csc(C(C)C)n2)CCO3)c1F [Example 66, N-Ethyl-3-(3-(2-fluoro-3-((4-(2-isopropylthiazole-4-carbonyl)-1-oxa-4,9-diazaspiro[5.5]undecan-9-yl)methyl)phenyl)propoxy)-N-(2-(2-(4-hydroxy-2-oxo-2,3-dihydrobenzo[d]thiazol-7-yl)ethylamino)ethyl)propanamide ditrifluoroacetate] | 9.30 | 251 | 0.5
CCN(CCNCCc1ccc(O)c2[nH]c(=O)sc12)C(=O)CCOCCc1cc(CN2CCC3(CC2)CN(C(=O)c2csc(C)n2)CCO3)ccc1Cl [Example 46, 3-(2-Chloro-5-((4-(2-methylthiazole-4-carbonyl)-4-oxa-4,9-diazaspiro[5.5]undecan-9-yl)methyl)phenethoxy)-N-ethyl-N-(2-(2-(4-hydroxy-2-oxo-2,3-dihydrobenzo[d]thiazol-7-yl)ethylamino)ethyl)propanamide ditrifluoroacetate] | 9.50 | 398 | 0.9
CC(C)c1nc(C(=O)N2CCOC3(CN(CCc4cccc(CCOCCC(=O)N(CCNCCc5ccc(O)c6c5OCC(=O)N6)C5CCCCC5)c4)C3)C2)cs1 [Example 176, N-Cyclohexyl-N-(2-(2-(5-hydroxy-3-oxo-3,4-dihydro-2H-benzo[b][1,4]oxazin-8-yl)ethylamino)ethyl)-3-(3-(2-(8-(2-isopropylthiazole-4-carbonyl)-5-oxa-2,8-diazaspiro[3.5]nonan-2-yl)ethyl)phenethoxy)propanamide, trifluoroacetate salt] | 8.60 | 15.8 | 1.2
CC(C)c1nc(C(=O)N2CCOC3(CCN(Cc4cccc(CCOCCC(=O)N(CCNCCc5ccc(O)c6c5OCC(=O)N6)CC(F)F)c4F)CC3)C2)cs1 [Example 73, N-(2,2-Difluoroethyl)-3-(2-fluoro-3-((4-(2-isopropylthiazole-4-carbonyl)-1-oxa-4,9-diazaspiro[5.5]undecan-9-yl)methyl)phenethoxy)-N-(2-(2-(5-hydroxy-3-oxo-3,4-dihydro-2H-benzo[b][1,4]oxazin-8-yl)ethylamino)ethyl)propanamide ditrifluoroacetate] | 10.00 | 25.1 | 1.1
CCCC[C@@H](C)N(CCNCCc1ccc(O)c2c1OCC(=O)N2)C(=O)CCOCCc1ccc(CCN2CCC3(CC2)CN(C(=O)c2csc(C)n2)CCO3)cc1 [Example 6, (R)—N-(Hexan-2-yl)-N-(2-(2-(5-hydroxy-3-oxo-3,4-dihydro-2H-benzo[b][1,4]oxazin-8-yl)ethylamino)ethyl)-3-(4-(2-(4-(2-methylthiazole-4-carbonyl)-1-oxa-4,9-diazaspiro[5.5]undecan-9-yl)ethyl)phenethoxy)propanamide ditrifluoroacetate] | 10.00 | 31.6 | 1.0
CCN(CCNCCc1ccc(O)c2[nH]c(=O)sc12)C(=O)CCOCCc1cc(Cl)cc(CN2CCC3(CC2)CN(C(=O)c2csc(C(C)C)n2)CCO3)c1 [Example 50, 3-(3-Chloro-5-((4-(2-isopropylthiazole-4-carbonyl)-1-oxa-4,9-diazaspiro[5.5]undecan-9-yl)methyl)phenethoxy)-N-ethyl-N-(2-(2-(4-hydroxy-2-oxo-2,3-dihydrobenzo[d]thiazol-7-yl)ethylamino)ethyl)propanamide ditrifluoroacetate] | 6.10 | 126 | 0.9
O=C1COc2c(CCNCCN(C(=O)CCOCCc3cccc(CN4CCC5(CC4)CN(C(=O)c4ccc6occc6c4)CCO5)c3)C3CCCCC3)ccc(O)c2N1 [Example 84, 3-(3-((4-(Benzofuran-5-carbonyl)-1-oxa-4,9-diazaspiro[5.5]undecan-9-yl)methyl)phenethoxy)-N-cyclohexyl-N-(2-(2-(5-hydroxy-3-oxo-3,4-dihydro-2H-benzo[b][1,4]oxazin-8-yl)ethylamino)ethyl)propanamide] | 9.70 | 200 | 1.0
CC(C)c1nc(C(=O)N2CCOC3(CCN(Cc4cccc(CCOCCC(=O)N(CCNCCc5ccc(O)c6c5OCC(=O)N6)[C@H](C)c5ccccc5)c4F)CC3)C2)cs1 [Example 14, (R)-3-(2-Fluoro-3-((4-(2-isopropylthiazole-4-carbonyl)-1-oxa-4,9-diazaspiro[5.5]undecan-9-yl)methyl)phenethoxy)-N-(2-(2-(5-hydroxy-3-oxo-3,4-dihydro-2H-benzo[b][1,4]oxazin-8-yl)ethylamino)ethyl)-N-(1-phenylethyl)propanamide ditrifluoroacetate] | 9.40 | 50.1 | 1.0

Results, then the compound that gave them:

pIC50 [1] | EC50 [2] [nM] | β2 Intrinsic Activity [2] | Structure (SMILES)
10.20 | 200 | 1.2 | CC(C)c1nc(C(=O)N2CCOC3(CCN(Cc4csc(CCOCCC(=O)N(CCNCCc5ccc(O)c6c5OCC(=O)N6)C5CCCCC5)c4)CC3)C2)cs1 [Example 56, N-Cyclohexyl-N-(2-(2-(5-hydroxy-3-oxo-3,4-dihydro-2H-benzo[b][1,4]oxazin-8-yl)ethylamino)ethyl)-3-(2-(4-((4-(2-isopropylthiazole-4-carbonyl)-1-oxa-4,9-diazaspiro[5.5]undecan-9-yl)methyl)thiophen-2-yl)ethoxy)propanamide ditrifluoroacetate]
9.10 | 25.1 | 0.8 | CCCCN(CCNCCc1ccc(O)c2c1OCC(=O)N2)C(=O)CCOCCc1ccc(CCN2CCC3(CC2)CN(C(=O)c2csc(C(C)C)n2)CCO3)cc1 [Example 4, N-Butyl-N-(2-(2-(5-hydroxy-3-oxo-3,4-dihydro-2H-benzo[b][1,4]oxazin-8-yl)ethylamino)ethyl)-3-(4-(2-(4-(2-isopropylthiazole-4-carbonyl)-1-oxa-4,9-diazaspiro[5.5]undecan-9-yl)ethyl)phenethoxy)propanamide ditrifluoroacetate]
9.50 | 79.4 | 1.2 | COc1cccc(CN(CCNCCc2ccc(O)c3c2OCC(=O)N3)C(=O)CCOCCc2cccc(CN3CCC4(CC3)CN(C(=O)c3csc(C(C)C)n3)CCO4)c2F)c1 [Example 23, 3-(2-Fluoro-3-((4-(2-Isopropylthiazole-4-carbonyl)-1-oxa-4,9-diazaspiro[5.5]undecan-9-yl)methyl)phenethoxy)-N-(2-(2-(5-hydroxy-3-oxo-3,4-dihydro-2H-benzo[b][1,4]oxazin-8-yl)ethylamino)ethyl)-N-(3-methoxybenzyl)propanamide ditrifluoroacetate]
> 10.30 | 316 | 0.9 | CC(C)c1nc(C(=O)N2CCOC3(CCN(Cc4cccc(CCCOCCC(=O)N(CCNCCc5ccc(O)c6c5OCC(=O)N6)C5CCCCC5)c4)CC3)C2)cs1 [Example 57, N-Cyclohexyl-N-(2-(2-(5-hydroxy-3-oxo-3,4-dihydro-2H-benzo[b][1,4]oxazin-8-yl)ethylamino)ethyl)-3-(3-(3-((4-(2-isopropylthiazole-4-carbonyl)-1-oxa-4,9-diazaspiro[5.5]undecan-9-yl)methyl)phenyl)propoxy)propanamide ditrifluoroacetate]
> 10.50 | 398 | 1.0 | Cc1nc(C(=O)N2CCOC3(CCN(Cc4cccc(CCOCCC(=O)N(CCNCCc5ccc(O)c6[nH]c(=O)ccc56)C5CCCCC5)c4)CC3)C2)cs1 [Example 42, N-Cyclohexyl-N-(2-(2-(8-hydroxy-2-oxo-1,2-dihydroquinolin-5-yl)ethylamino)ethyl)-3-(3-((4-(2-methylthiazole-4-carbonyl)-1-oxa-4,9-diazaspiro[5.5]undecan-9-yl)methyl)phenethoxy)propanamide ditrifluoroacetate]
9.40 | 63.1 | 0.9 | CC(C)c1nc(C(=O)N2CCOC3(CCN(Cc4cc(F)cc(CCOCCC(=O)N(CCNCCc5ccc(O)c6c5OCC(=O)N6)C5CCCCC5)c4)CC3)C2)cs1 [Example 47, N-Cyclohexyl-3-(3-fluoro-5-((4-(2-isopropylthiazole-4-carbonyl)-1-oxa-4,9-diazaspiro[5.5]undecan-9-yl)methyl)phenethoxy)-N-(2-(2-(5-hydroxy-3-oxo-3,4-dihydro-2H-benzo[b][1,4]oxazin-8-yl)ethylamino)ethyl)propanamide ditrifluoroacetate]
9.20 | 50.1 | 0.9 | CC(C)c1nc(C(=O)N2CCOC3(CCN(Cc4cccc(CCOCCC(=O)N(CCNCCc5ccc(O)c6c5OCC(=O)N6)[C@H](C)C(C)(C)C)c4F)CC3)C2)cs1 [Example 19, (R)—N-(3,3-Dimethylbutan-2-yl)-3-(2-fluoro-3-((4-(2-isopropylthiazole-4-carbonyl)-1-oxa-4,9-diazaspiro[5.5]undecan-9-yl)methyl)phenethoxy)-N-(2-(2-(5-hydroxy-3-oxo-3,4-dihydro-2H-benzo[b][1,4]oxazin-8-yl)ethylamino)ethyl)propanamide ditrifluoroacetate]

Reference: patent US8476265B2, “Compounds-801” (AstraZeneca AB, priority 2010, dated 2013)
